Source: ChEMBL document CHEMBL1201862, “PubChem BioAssay data set” (2004)
Activity calls are given as the source filed them.

How the values were obtained:
[1] = molecular target: T1, Calpain-2 catalytic subunit (Sus scrofa, UniProt P43367); assay: m-calpain protease blockers, concentration series – biochemical, fluorogenic peptide substrate, dose response (AID 1420); assay type: functional
T1 sequence (P43367 whole entry): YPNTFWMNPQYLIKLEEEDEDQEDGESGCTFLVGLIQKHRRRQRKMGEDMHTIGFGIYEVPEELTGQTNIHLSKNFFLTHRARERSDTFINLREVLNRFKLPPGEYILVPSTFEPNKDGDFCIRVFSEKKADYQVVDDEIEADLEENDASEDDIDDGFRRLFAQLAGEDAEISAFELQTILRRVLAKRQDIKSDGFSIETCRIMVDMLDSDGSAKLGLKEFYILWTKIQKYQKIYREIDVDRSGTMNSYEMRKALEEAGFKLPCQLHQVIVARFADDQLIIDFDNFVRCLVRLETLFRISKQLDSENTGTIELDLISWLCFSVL

cells [2] = assay type: functional
[3] = viability loss in human Jurkat cells – cell-based, luminescence, cytotoxicity control for P. falciparum gametocyte viability project, dose response (AID 1117277); assay type: functional;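 note: potency reflects loss of cellular ATP meaning fewer viable cells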
[4] = viability inhibitors of stage V gametocytes – luminescence, dose response (AID 1117278); assay type: functional, cell-based;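 note: gametocytes exposed to compound for 24 hours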
[5] = Luminescence Cell-Based Dose Response to Identify Activators of 5'UTR Stem-Loop Driven Prion Protein mRNA Translation in H4-C Neuroglioblastoma Cells. [Related pubchem assays: 1829 (Project Summary), 1814 (Primary HTS)]; assay type: functional
[6] = molecular target: T2, Sentrin-specific protease 8 (Homo sapiens, UniProt Q96LD8); assay type: functional;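 note: luminescence read-out of SENP8 inhibition, dose-response confirmation following an ultra-high-throughput screen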
T2 sequence (Q96LD8 whole entry): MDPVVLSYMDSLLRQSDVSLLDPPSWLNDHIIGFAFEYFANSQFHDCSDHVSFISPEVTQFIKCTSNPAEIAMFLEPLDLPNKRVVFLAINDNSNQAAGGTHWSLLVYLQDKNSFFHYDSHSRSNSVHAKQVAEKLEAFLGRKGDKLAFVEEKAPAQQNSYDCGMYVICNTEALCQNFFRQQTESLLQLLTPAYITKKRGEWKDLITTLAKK

[7] = Luminescence Cell-Based Dose Response to Identify Activators of Luciferase Translation or Activity in H4-C Neuroglioblastoma Cells. [Related pubchem assays: 1829 (Project Summary), 1814 (Primary HTS)]; assay type: functional
[8] = Luminescence Cell-Based Dose Confirmation to Identify Activators of 5'UTR Stem-Loop Driven Alpha-Synuclein mRNA Translation in H4 Neuroglioblastoma Cells. [Related pubchem assays: 1829 (Project Summary), 1814 (Primary HTS)]; assay type: functional
[9] = molecular target: T3, Sentrin-specific protease 6 (Homo sapiens, UniProt Q9GZR1); assay type: functional;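 note: Luminescence-based dose-response confirmatory assay of SENP6 inhibition, following up an ultra-high-throughput screen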
T3 sequence (Q9GZR1 whole entry): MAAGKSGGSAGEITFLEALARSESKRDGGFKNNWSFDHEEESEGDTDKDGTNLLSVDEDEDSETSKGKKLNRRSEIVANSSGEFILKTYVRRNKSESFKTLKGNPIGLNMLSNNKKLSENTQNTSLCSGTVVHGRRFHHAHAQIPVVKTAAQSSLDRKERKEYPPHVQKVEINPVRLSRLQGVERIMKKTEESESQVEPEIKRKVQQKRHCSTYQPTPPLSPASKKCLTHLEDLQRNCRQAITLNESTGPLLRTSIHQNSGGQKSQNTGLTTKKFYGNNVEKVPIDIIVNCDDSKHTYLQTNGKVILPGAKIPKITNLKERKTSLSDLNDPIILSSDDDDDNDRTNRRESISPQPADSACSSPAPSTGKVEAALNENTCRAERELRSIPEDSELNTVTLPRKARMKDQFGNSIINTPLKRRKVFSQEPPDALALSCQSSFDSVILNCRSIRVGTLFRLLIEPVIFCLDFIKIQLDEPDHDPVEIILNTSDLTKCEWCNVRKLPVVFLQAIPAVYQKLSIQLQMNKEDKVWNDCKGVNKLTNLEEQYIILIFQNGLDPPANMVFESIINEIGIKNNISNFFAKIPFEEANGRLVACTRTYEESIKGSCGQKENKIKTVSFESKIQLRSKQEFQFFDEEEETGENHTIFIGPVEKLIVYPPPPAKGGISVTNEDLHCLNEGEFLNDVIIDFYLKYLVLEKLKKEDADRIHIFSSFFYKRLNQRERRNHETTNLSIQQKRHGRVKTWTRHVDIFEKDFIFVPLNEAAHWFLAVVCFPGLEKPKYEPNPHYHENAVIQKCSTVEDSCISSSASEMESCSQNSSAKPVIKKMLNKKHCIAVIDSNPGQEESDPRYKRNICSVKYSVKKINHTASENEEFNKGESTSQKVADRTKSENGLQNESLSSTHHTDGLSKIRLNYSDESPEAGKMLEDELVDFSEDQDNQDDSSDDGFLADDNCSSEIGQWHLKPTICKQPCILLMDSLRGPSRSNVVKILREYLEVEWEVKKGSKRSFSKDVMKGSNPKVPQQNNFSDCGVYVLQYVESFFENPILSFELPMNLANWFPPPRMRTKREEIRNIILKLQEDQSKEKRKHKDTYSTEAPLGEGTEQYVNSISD

[10] = molecular target: T4, Sentrin-specific protease 7 (Homo sapiens, UniProt Q9BQF6); assay type: functional;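 note: Luminescence-based dose-response confirmation of ultra-high-throughput screening hits, measuring inhibition of SENP7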
T4 sequence (Q9BQF6 whole entry): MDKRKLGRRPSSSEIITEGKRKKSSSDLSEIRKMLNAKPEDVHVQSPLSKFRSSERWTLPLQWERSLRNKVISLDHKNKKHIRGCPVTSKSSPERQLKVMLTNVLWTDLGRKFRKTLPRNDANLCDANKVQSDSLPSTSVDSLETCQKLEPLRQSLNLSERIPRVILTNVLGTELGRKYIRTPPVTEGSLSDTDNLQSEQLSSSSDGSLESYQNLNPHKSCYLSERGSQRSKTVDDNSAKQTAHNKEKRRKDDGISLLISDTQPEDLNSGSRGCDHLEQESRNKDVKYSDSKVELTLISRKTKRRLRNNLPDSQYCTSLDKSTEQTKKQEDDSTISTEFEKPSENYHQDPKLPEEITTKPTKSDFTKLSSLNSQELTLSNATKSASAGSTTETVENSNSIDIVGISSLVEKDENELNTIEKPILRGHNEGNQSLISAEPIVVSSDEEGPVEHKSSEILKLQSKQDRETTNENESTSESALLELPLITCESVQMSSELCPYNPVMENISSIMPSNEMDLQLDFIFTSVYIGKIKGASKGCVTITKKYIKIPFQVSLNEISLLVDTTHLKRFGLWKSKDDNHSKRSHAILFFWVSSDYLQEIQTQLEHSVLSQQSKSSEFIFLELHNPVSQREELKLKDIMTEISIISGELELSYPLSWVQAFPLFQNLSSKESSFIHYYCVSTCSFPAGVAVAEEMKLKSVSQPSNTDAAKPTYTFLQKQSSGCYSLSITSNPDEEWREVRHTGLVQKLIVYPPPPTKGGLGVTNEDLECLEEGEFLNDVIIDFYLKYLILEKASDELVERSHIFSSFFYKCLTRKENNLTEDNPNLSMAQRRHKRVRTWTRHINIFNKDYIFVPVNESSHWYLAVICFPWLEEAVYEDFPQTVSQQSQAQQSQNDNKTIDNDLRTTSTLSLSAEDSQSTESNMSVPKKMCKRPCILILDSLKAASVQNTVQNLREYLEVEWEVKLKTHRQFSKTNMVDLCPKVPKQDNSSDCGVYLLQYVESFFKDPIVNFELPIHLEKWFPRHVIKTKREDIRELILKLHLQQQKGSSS

Caspase-3 = molecular target: T5, Caspase-3 (Homo sapiens, UniProt P42574); assay type: functional;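 note: Dose-response selectivity test against caspase-3 for candidate inhibitors of sentrin-specific proteases (SENPs)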
T5 sequence (P42574 whole entry): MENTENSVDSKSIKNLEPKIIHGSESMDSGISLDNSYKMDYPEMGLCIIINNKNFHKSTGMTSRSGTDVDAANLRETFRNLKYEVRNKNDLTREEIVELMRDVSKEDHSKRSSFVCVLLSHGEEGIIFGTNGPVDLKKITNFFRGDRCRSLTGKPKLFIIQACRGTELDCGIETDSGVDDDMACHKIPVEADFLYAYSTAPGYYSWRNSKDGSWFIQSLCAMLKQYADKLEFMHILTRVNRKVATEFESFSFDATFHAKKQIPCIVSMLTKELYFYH

H4 = assay: Luminescence Cell-Based Dose Response HTS to Identify Activators of 5'UTR Stem-Loop Driven Prion Protein mRNA Translation in H4 Neuroglioblastoma Cells. [Related pubchem assays: 1829 (Project Summary), 1814 (Primary HTS)]; assay type: functional; conditions: Homo sapiens
cells [11] = assay: cells
[12] = viability of uninfected HEp-2 cells – cell-based, HTS, cytotoxicity control for RSV inhibitor project, dose response (AID 2410); assay type: functional; conditions: human respiratory syncytial virus
Prothrombin = Prothrombin (Homo sapiens, UniProt P00734); assay: Thrombin 1536 HTS Dose Response Confirmation. [Related pubchem assays: 1046 (Thrombin 1536 HTS; hits were confirmed in this assay)]; assay type: functional
[13] = A Cell Based Secondary Assay To Explore Cytotoxicity of Compounds that Sensitize Mycobacterium Tuberculosis to Beta-Lactam Antibiotics.; assay type: functional
[14] = Luminescence Cell-Based Dose Confirmation HTS to Identify Activators of 5'UTR Stem-Loop Driven Alpha-Synuclein mRNA Translation in H4 Neuroglioblastoma Cells. [Related pubchem assays: 1829 (Project Summary), 1814 (Primary HTS)]; assay type: functional
[15] = Dd2 parasite growth inhibition in erythrocytes – SYBR Green, dry powder samples, set 9, dose response (AID 1159568); assay type: functional, cell-based
[16] = Luminescence Cell-Based Dose Response HTS to Identify Activators of Luciferase Translation or Activity in H4 […] Cells. [Related pubchem assays: 1829 (Project Summary), 1814 (Primary HTS)]; assay type: functional
Nonstructural protein 1 = Nonstructural protein 1 (Influenza A virus, UniProt Q194T2); assay type: functional, Influenza A virus (A/California/07/2009(H1N1))
Sequence of Nonstructural protein 1 (Q194T2 whole entry): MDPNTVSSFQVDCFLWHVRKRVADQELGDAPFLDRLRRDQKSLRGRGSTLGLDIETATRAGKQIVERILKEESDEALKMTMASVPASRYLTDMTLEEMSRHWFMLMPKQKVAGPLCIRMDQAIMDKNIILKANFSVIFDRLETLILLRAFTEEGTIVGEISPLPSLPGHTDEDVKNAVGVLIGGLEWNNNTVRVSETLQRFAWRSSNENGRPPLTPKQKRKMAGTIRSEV

COc1ccc(-c2cc(C(=O)NCc3cn(C)nc3C)c3ccccc3n2)cc1OC
IC50 [1]: > 50 µM (not active)

O=C(Nc1ncc(Cc2ccccc2)s1)C1=NCCN1
IC50 (cells [2]): 14 µM (active)
IC50 [3]: > 83.3 µM (inactive)
IC50 [4]: > 109 µM (inactive)

Cc1cccc(-c2cc3nc4c(c(N5CCOCC5)n3n2)CCCC4)c1
EC50 [5]: 0.734 µM (active)
IC50 [6]: 19.4 µM (active)
EC50 [7]: 0.514 µM (active)
EC50 [8]: 0.228 µM (active)
IC50 [9]: 18.5 µM (active)
IC50 [10]: 12.9 µM (active)
IC50 (Caspase-3): 12.4 µM (active)
EC50 (H4): < 0.1 µM (active)

Cc1ccc(Cn2c(SCC(=O)N3CC(=O)Nc4ccccc43)nc3ccccc3c2=O)cc1
IC50 (cells [11]): 42 µM (active)
CC50 [12]: 40.2 µM (active)

CCC(=O)n1nc(-c2ccccc2)nc1SCC(=O)Nc1ccc(C)cc1
IC50 (Prothrombin): 1.22 µM (active)

CCCCN(C)Cc1cc(=O)oc2cc3c(cc12)CCCC3
CC50 [13]: > 40 µM (active)

Cc1sc2c(c1C)c(=O)n(-c1ccc(F)cc1)c(=O)n2CC(=O)NCc1ccco1
IC50 [1]: 25.1 µM (not active)

O=C(Nc1nc(-c2cccs2)cs1)c1ccc(Cl)cc1
IC50 (Prothrombin): 4.5 µM (active)

Cc1ccnc(SCc2nc3ccccc3s2)n1
EC50 [5]: 3.21 µM (active)
EC50 [7]: > 12 µM (not active)
EC50 [14]: < 0.1 µM (active)
EC50 [8]: > 12 µM (inconclusive)
EC50 (H4): 6.54 µM (active)

Cc1ccc2cc(CN(Cc3ccco3)C(=O)c3ccco3)c3nnnn3c2c1
IC50 (cells [11]): 44.3 µM (active)
CC50 [12]: > 50 µM (active)

C[C@@H]1CCCCO[C@@H](CN(C)S(=O)(=O)c2ccccc2)[C@H](C)CN([C@H](C)CO)C(=O)c2cc(NC(=O)Nc3ccc4c(c3)OCO4)ccc2O1
AC50 [15]: 1.17 µM (active)

Cc1nc(SCC(=O)NCc2ccco2)c2c3c(sc2n1)CCCC3
CC50 [13]: 19.8 µM (active)

O=C(COC(=O)c1cccnc1)Nc1ccc(F)cc1
IC50 [3]: > 83.3 µM (inactive)
IC50 [4]: > 109 µM (inactive)

CC1CCCCC12NC(=O)N(CC(=O)NCCc1ccccn1)C2=O (stereo not given)
IC50 [3]: > 83.3 µM (inactive)
IC50 [4]: > 109 µM (inactive)

COc1cccc(NC(=O)c2ccc(NCCCN3CC(C)CC(C)C3)c([N+](=O)[O-])c2)c1 (stereo not given)
IC50 [1]: 3.92 µM (not active)

O=C(Nc1cc(F)ccc1F)N1CCCCN2[C@H](CO)[C@H](c3ccc(C4=CCCCC4)cc3)[C@@H]2C1
AC50 [15]: 12.2 µM (active)

COc1ccccc1-c1ccc(NC2CCCCC2)nn1
EC50 [5]: 1.68 µM (active)
EC50 [7]: > 12 µM (not active)
EC50 [14]: 0.6 µM (active)
EC50 [8]: 0.442 µM (active)
EC50 (H4): < 0.1 µM (active)
EC50 [16]: 52.7 µM (active)

Cc1ccc(C)c(N=Nc2nc3ccccc3n2C)c1
EC50 [5]: 0.275 µM (active)
EC50 [7]: 0.281 µM (active)
EC50 [8]: 0.393 µM (active)
IC50 (Nonstructural protein 1): 14.3 µM (active)
EC50 (H4): < 0.1 µM (active)
EC50 [16]: 0.139 µM (inconclusive)

CC1(C)CC(=O)C(Sc2nnc(-c3ccc(O)cc3)n2CC2CCCO2)C(=O)C1 (stereo not given)
IC50 [3]: > 83.3 µM (inactive)
IC50 [4]: > 109 µM (inactive)

Cc1ccc(NC(=O)c2cc(N3C(=O)C4CCCCC4C3=O)ccc2N2CCOCC2)cc1 (stereo not given)
IC50 [1]: 14.9 µM (not active)

COc1ccccc1NC(=O)CCn1c(=O)c2cccn2c2ccccc21
IC50 (cells [11]): 43.8 µM (active)
CC50 [12]: > 50 µM (active)
